According to BigSolDB 2.1:

Nc1ccc(Sc2ccc([N+](=O)[O-])cc2)cc1
Conditions	solubility (mole fraction)
in chlorobenzene, 291.25 K	0.011
in chlorobenzene, 296.55 K	0.0133
in chlorobenzene, 301.75 K	0.0174
in chlorobenzene, 306.25 K	0.019
in chlorobenzene, 311.35 K	0.0225
in chlorobenzene, 316.65 K	0.0275
in chlorobenzene, 321.25 K	0.0314
in chloroform, 288.35 K	0.0218
in chloroform, 293.55 K	0.0264
in chloroform, 298.45 K	0.0307
in chloroform, 303.65 K	0.0361
in chloroform, 309.25 K	0.0433
in dichloromethane, 287.45 K	0.0244
in dichloromethane, 290.95 K	0.0275
in dichloromethane, 293.75 K	0.0299
in dichloromethane, 297.15 K	0.0339
in ethyl acetate, 290.45 K	0.0511
in ethyl acetate, 295.65 K	0.0575
in ethyl acetate, 300.45 K	0.063
in ethyl acetate, 305.65 K	0.0709
in ethyl acetate, 309.15 K	0.0766
in ethyl acetate, 313.65 K	0.0836
in ethyl acetate, 318.25 K	0.0911
in n-butanol, 292.55 K	0.0018
in n-butanol, 297.75 K	0.0024
in n-butanol, 302.65 K	0.0031
in n-butanol, 307.65 K	0.004
in n-butanol, 312.35 K	0.005
in n-butanol, 317.55 K	0.0061
in n-butanol, 322.25 K	0.0081
in toluene, 289.75 K	0.0183
in toluene, 294.55 K	0.0214
in toluene, 299.65 K	0.0241
in toluene, 304.75 K	0.0283
in toluene, 309.35 K	0.0337
in toluene, 314.55 K	0.0385
in toluene, 319.35 K	0.0448
in toluene, 324.65 K	0.0506
